Laboratory results as given in PubChem BioAssay AID248 (DTP/NCI, 2004).
Several values for one entry are separate records, joined by “and”; a condition that tells them apart may be missing. Identical values can stand only once. Inconclusive results and toxic doses are left out. No stated cut-off is given here; in the data, active means T/C of 150% or more; inactive means T/C below 125%.

Tested on: L1210 leukemia ip in BDF1 mice, survival T/C
Test: NCI In Vivo Anticancer Drug Screen. Data for tumor model L1210 Leukemia (intraperitoneal) in B6D2F1 (BDF1) mice
Conditions: endpoint: mean survival time, higher = longer survival
In short: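 Transplantable tumor model; survival measured in treated vs vehicle control mice. Value = treated/control.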

[1] = dose: 100.0 mg/kg/injection, schedule: Q01DX009 (ip), vehicle: Klucel (hydroxypropylcellulose) (HPC)
[2] = dose: 100.0 mg/kg/injection, schedule: Q04DX003 (ip), vehicle: saline with Tween-80
[3] = dose: 200.0 mg/kg/injection, schedule: Q04DX003 (ip), vehicle: saline with Tween-80
[4] = dose: 400.0 mg/kg/injection, schedule: Q04DX003 (ip), vehicle: saline with Tween-80
[5] = dose: 100.0 mg/kg/injection, schedule: Q04DX003 (ip), vehicle: saline
[6] = dose: 200.0 mg/kg/injection, schedule: Q04DX003 (ip), vehicle: saline
[7] = dose: 400.0 mg/kg/injection, schedule: Q04DX003 (ip), vehicle: saline
[8] = dose: 50.0 mg/kg/injection, schedule: Q01DX001 (ip), vehicle: carboxymethylcellulose (CMC)
[9] = dose: 100.0 mg/kg/injection, schedule: Q01DX001 (ip), vehicle: carboxymethylcellulose (CMC)
[10] = dose: 200.0 mg/kg/injection, schedule: Q01DX001 (ip), vehicle: carboxymethylcellulose (CMC)
[11] = dose: 400.0 mg/kg/injection, schedule: Q01DX001 (ip), vehicle: carboxymethylcellulose (CMC)
[12] = dose: 200.0 mg/kg/injection, schedule: Q01DX009 (ip), vehicle: Klucel (hydroxypropylcellulose) (HPC)

Measured: T/C

O=C(O)C1CC2c3ccccc3C1c1ccccc12 (stereo not drawn)
inactive: dose: 25.0 mg/kg/injection, schedule: Q01DX009 (ip), vehicle: Klucel (hydroxypropylcellulose) (HPC) 90 % of control | dose: 50.0 mg/kg/injection, schedule: Q01DX009 (ip), vehicle: Klucel (hydroxypropylcellulose) (HPC) 97 % of control | [1] 104 % of control | dose: 100.0 mg/kg/injection, schedule: Q04DX003 (ip), vehicle: Klucel (hydroxypropylcellulose) (HPC) 90 % of control

Cc1nccc2c(C)c3c(cc12)c1ccccc1n3CC1CO1 (stereo not drawn)
inactive: dose: 4.69 mg/kg/injection, schedule: Q01DX009 (ip), vehicle: saline with Tween-80 119 % of control | dose: 9.37 mg/kg/injection, schedule: Q04DX003 (ip), vehicle: saline with Tween-80 113 % of control | dose: 18.75 mg/kg/injection, schedule: Q01DX009 (ip), vehicle: saline with Tween-80 124 % of control | dose: 18.75 mg/kg/injection, schedule: Q04DX003 (ip), vehicle: saline with Tween-80 119 % of control | dose: 37.5 mg/kg/injection, schedule: Q01DX009 (ip), vehicle: saline with Tween-80 103 % of control | dose: 37.5 mg/kg/injection, schedule: Q04DX003 (ip), vehicle: saline with Tween-80 122 % of control | dose: 75.0 mg/kg/injection, schedule: Q01DX009 (ip), vehicle: saline with Tween-80 92 % of control | dose: 150.0 mg/kg/injection, schedule: Q04DX003 (ip), vehicle: saline with Tween-80 115 % of control

O=C(O)CCC(NC(=O)OCc1ccccc1)C(=O)NC(Cc1ccccc1)C(=O)O (stereo not drawn)
inactive: [2] 102 % of control | [3] 101 % of control | [4] 101 % of control

Nc1ccc(OCC(=O)N2CCOCC2)c(Cl)c1
inactive: dose: 100.0 mg/kg/injection, schedule: Q01DX009 (ip), vehicle: saline 100 % of control | [5] 110 % of control | dose: 200.0 mg/kg/injection, schedule: Q01DX009 (ip), vehicle: saline 102 % of control | [6] 98 % of control | dose: 400.0 mg/kg/injection, schedule: Q01DX009 (ip), vehicle: saline 96 % of control | [7] 101 % of control

Cc1ccc2c(c1)SP(=S)(c1ccccc1)N2 (stereo not drawn)
inactive: dose: 15.0 mg/kg/injection, schedule: Q01DX Z (ip), vehicle: saline 100 % of control | dose: 25.0 mg/kg/injection, schedule: Q01DX Z (ip), vehicle: saline 89 % of control

Nc1nc2c(ncn2C2OC(COC(=O)c3ccc(Cl)cc3)C(OC(=O)c3ccc(Cl)cc3)C2OC(=O)c2ccc(Cl)cc2)c(=O)[nH]1 (stereo not drawn)
inactive: [8] 95 % of control | [9] 97 % of control | [10] 91 % of control | [11] 97 % of control

CCOC(=O)C(Nc1ccccc1)C(=O)OCC
inactive: [2] 92 % of control | [3] 97 % of control | [4] 100 % of control

Clc1ccc2c(CBr)ccnc2c1
inactive: dose: 100.0 mg/kg/injection, schedule: Q01DX001 (ip), vehicle: saline 98 % of control | dose: 200.0 mg/kg/injection, schedule: Q01DX001 (ip), vehicle: saline 104 % of control

CC1=CC(C)(C)NC(=S)N1c1cccc([N+](=O)[O-])c1
inactive: dose: 224.0 mg/kg/injection, schedule: Q01DX Z (ip), vehicle: methylcellulose (MC) 88 % of control | dose: 334.0 mg/kg/injection, schedule: Q01DX Z (ip), vehicle: methylcellulose (MC) 89 % of control | dose: 500.0 mg/kg/injection, schedule: Q01DX Z (ip), vehicle: methylcellulose (MC) 94 % of control

COC(=O)C(=O)CC(=O)c1ccc(C)cc1
inactive: dose: 100.0 mg/kg/injection, schedule: Q04DX002 (ip), vehicle: Klucel (hydroxypropylcellulose) (HPC) 103 % of control | dose: 200.0 mg/kg/injection, schedule: Q04DX002 (ip), vehicle: Klucel (hydroxypropylcellulose) (HPC) 95 % of control | dose: 400.0 mg/kg/injection, schedule: Q04DX002 (ip), vehicle: Klucel (hydroxypropylcellulose) (HPC) 106 % of control

O=C(O)c1ccc(Cl)nc1
inactive: [8] 97 % of control | [9] 94 % of control | [2] 104 % of control | [10] 92 % of control | [3] 103 % of control | [11] 94 % of control | [4] 104 % of control

Cc1cccc(C(=O)OCc2ccccc2CN(C)C)c1
inactive: dose: 75.0 mg/kg/injection, schedule: Q04DX002 (ip), vehicle: Klucel (hydroxypropylcellulose) (HPC) 91 % of control | dose: 150.0 mg/kg/injection, schedule: Q04DX002 (ip), vehicle: Klucel (hydroxypropylcellulose) (HPC) 94 % of control | dose: 300.0 mg/kg/injection, schedule: Q04DX002 (ip), vehicle: Klucel (hydroxypropylcellulose) (HPC) 94 % of control

Cc1c(C(C)(C(=O)O)c2c(C)n(C)c3ccccc23)c2ccccc2n1C
inactive: dose: 50.0 mg/kg/injection, schedule: Q01DX001 (ip), vehicle: other 96 % of control | dose: 100.0 mg/kg/injection, schedule: Q01DX001 (ip), vehicle: other 93 % of control | dose: 200.0 mg/kg/injection, schedule: Q01DX001 (ip), vehicle: other 91 % of control | dose: 400.0 mg/kg/injection, schedule: Q01DX001 (ip), vehicle: other 96 % of control

CC1(C)C=CC(=NO)C=C1
inactive: [1] 96 % of control | [12] 97 % of control

CCOC(=O)C(N=Nc1nn[nH]n1)C(C)=O (stereo not drawn)
inactive: dose: 100.0 mg/kg/injection, schedule: Q04DX003 (ip), vehicle: acetone 109 % of control | dose: 200.0 mg/kg/injection, schedule: Q04DX003 (ip), vehicle: acetone 94 % of control | dose: 400.0 mg/kg/injection, schedule: Q04DX003 (ip), vehicle: acetone 108 % of control

CC(=O)c1cccc(NC(=O)Nc2cccc(C(C)=O)c2)c1
inactive: dose: 2.5 mg/kg/injection, schedule: Q01DX009 (ip), vehicle: saline 101 % of control | dose: 5.0 mg/kg/injection, schedule: Q01DX009 (ip), vehicle: saline 95 % of control | dose: 10.0 mg/kg/injection, schedule: Q01DX009 (ip), vehicle: saline 98 % of control | dose: 20.0 mg/kg/injection, schedule: Q01DX009 (ip), vehicle: saline 93 % of control and 101 % of control | dose: 40.0 mg/kg/injection, schedule: Q01DX009 (ip), vehicle: saline 90 % of control | dose: 80.0 mg/kg/injection, schedule: Q01DX009 (ip), vehicle: saline 93 % of control | dose: 160.0 mg/kg/injection, schedule: Q01DX009 (ip), vehicle: saline 90 % of control | dose: 320.0 mg/kg/injection, schedule: Q01DX009 (ip), vehicle: saline 95 % of control

CCCCCCCCCCCCSC(SCCCCCCCCCCCC)c1ccc(OCC(=O)O)cc1
inactive: dose: 25.0 mg/kg/injection, schedule: Q04DX003 (ip), vehicle: saline 105 % of control | dose: 50.0 mg/kg/injection, schedule: Q04DX003 (ip), vehicle: saline 96 % of control | [1] 97 % of control | [5] 100 % of control | [12] 94 % of control | [6] 102 % of control | dose: 400.0 mg/kg/injection, schedule: Q01DX009 (ip), vehicle: Klucel (hydroxypropylcellulose) (HPC) 97 % of control | [7] 96 % of control
